Results reported in US20040204375A1, “Gene delivery compounds” (priority 2001, published 2004).

Tests used:
[1] = tested on: HT29 cells; assay: Screening assay for gene transfer activators: adenovirus luciferase or β-galactosidase constructs on confluent cells with test compound; format: cell-based, human; set-up: key to Activity (gene transfer activator): +++ = more active; ++ = active; + = less active; details: for Activity (gene transfer activator): gene transfer in presence vs absence of test compound
Protocol: A gene transfer activating compound is identified by an assay which determines whether gene transfer occurs to a greater extent in the presence of a test compound than in the absence. For example, confluent cells plated in multi-well cell culture units are exposed to adenovirus luciferase or β-galactosidase constructs in the presence of the test compound. The test compound is administered to cells before, after or concurrently with the adenovirus. The extent of gene transfer is measured by visual inspection or quantitative measurement of luciferase or β-galactosidase in the presence and absence of the test compound.
HT29 cells are grown in 96-well plates. The cells are seeded at near confluency, about 300,000 cells per well, and infected with adenovirus 3-4 days later. […] For screening purposes, cells are grown on plastic. […] The activity of candidate compounds is also confirmed using polarized monolayers grown on filters. Once confluent, HT29 cells are very difficult to transduce with adenoviral constructs. Fewer than 1 in 100 cells express adenoviral transgenes at multiplicity of infection (MOI) of approximately 50. A replication deficient adenovirus encoding firefly luciferase or the E. coli LacZ gene (β-galactosidase) at an MOI of 50 for each well of cells in low serum medium is applied for 4 hours at 37° C. Test drugs are incubated along with the virus. Forty-eight hours later, the cells are assayed for β-galactosidase or luciferase by standard techniques. For example, β-galactosidase is assayed by incubating cells with a β-galactosidase substrate such as 1 mg/ml X-gal 5-bromo-4-chloro-3-indolyl B-D-galactopyranoside (X-gal), overnight at 37° C. When X-gal is cleaved by β-galactosidase, a bright blue precipitate is formed. The intensity of the blue color can be estimated visually or measured by optical densitometry to evaluate the efficiency of adenoviral transduction. Luciferase is assayed using a commercially available kit (Promega) which allows quantitative measurements of adenoviral gene transfer.

[2] = tested on: HT29 cells; assay: Adenoviral LacZ gene transfer to confluent HT29 cells, β-galactosidase assay (Example 2); format: cell-based, human; details: for activation of adenovirus gene transfer: HT29 cells, LacZ adenovirus MOI 0.1-10, 4 hours, assay 48 hours later
Protocol: HT29 or HeLa cells are grown in 96-well plates. The HT29 cells are seeded at near confluency, about 300,000 cells per well, and infected with adenovirus 3-4 days later. Confluent HeLa cells are used as a positive control. […] A replication deficient adenovirus encoding the E. coli LacZ gene is applied at an MOI of 0.1-10 to wells of cells in low serum medium for 4 hours at 37° C. Gene transfer activating compounds are incubated along with the virus at concentrations of 10 micromolar or 100 micromolar. A set of cells is incubated with virus but no gene transfer activating compound. Forty-eight hours later, the cells are assayed for β-galactosidase by standard techniques. […] FIGS. 2 and 6 illustrate the results using compound 6975 and 8496 respectively.

[3] = tested on: IB3 cystic fibrosis airway epithelial cells; assay: Adenoviral luciferase gene transfer to IB3 cells (Example 3); format: cell-based; details: 100 micromolar compound, MOI 5 or 10, FIG. 3
Protocol: IB3 cystic fibrosis airway epithelial cells are grown in 96-well plates. The cells are seeded at near confluency, about 300,000 cells per well, and infected with adenovirus 3-4 days later. A replication deficient adenovirus encoding luciferase is applied at an MOI of 5 or 10 to wells of cells in low serum medium for 4 hours at 37° C. Compound 6975 is incubated along with the virus at a concentration of 100 micromolar. A set of cells is incubated with virus but no gene transfer activating compound. Forty-eight hours later, the cells are assayed for luciferase by standard techniques. FIG. 3 presents the results of this assay in a graph.

[4] = tested on: HT29 cells; assay: Adenoviral LacZ gene transfer to HT29 cells, comparison with EGTA (Example 4); format: cell-based, human; details: 100 micromolar compound vs 5 millimolar EGTA, MOI 10
Protocol: HT29 cells are grown in 96-well plates. The cells are seeded at near confluency, about 300,000 cells per well, and infected with adenovirus 3-4 days later. […] A replication deficient adenovirus encoding LacZ is applied at an MOI of 10 to wells of cells in low serum medium for 4 hours at 37° C. Compound 6975 is incubated along with the virus at a concentration of 100 micromolar. A second set of cells is incubated with virus but no gene transfer activating compound and a third set of cells is incubated with virus and 5 millimolar EGTA. Forty-eight hours later, the cells are assayed for […] by standard techniques.

[5] = tested on: PC-3 human prostate cell tumors; assay: In vivo adenoviral gene transfer to prostate tumors, PNP activity (Example 5); set-up: species or system mice; details: 1 mM compound, 2-3×10^9 adenoviral particles per tumor, FIG. 5
Protocol: Prostate tumors are established in suitable hosts and PNP activity assayed in the presence or absence of adenovirus. Approximately 2-3×10^9 adenoviral particles are administered per tumor in the presence of 1 mM of compound 6975 or in the absence of the compound. Transgene activity is also assayed in livers. Further details of the method are described in (3).

[H]/N=C(\N)N/N=C(\C)c1ccccn1 [Compound 6883]
Activity (gene transfer activator) [1]: +

[H]/N=C(/N/N=C(\C)c1ccccn1)Nc1ccccc1 [Compound 6898]
Activity (gene transfer activator) [1]: +

[H]/N=C(/N/N=C(\C)c1ccccn1)Nc1ccccc1 [Compound 6975]
activating adenovirus-mediated gene transfer and expression in cells ([1]; FIG. 1): effective in activating adenovirus-mediated gene transfer and expression in cells | Activity (gene transfer activator) [1]: +++ | activation of adenovirus gene transfer ([2]; 10 micromolar compound): show activation of adenovirus gene transfer | activation of adenovirus gene transfer ([2]; 100 micromolar compound): show activation of adenovirus gene transfer | adenoviral gene transfer of luciferase to IB3 cells [3]: activates adenoviral gene transfer of luciferase | adenovirus gene transfer efficiency compared with EGTA [4]: activates adenovirus gene transfer more efficiently than EGTA | in vivo adenoviral gene transfer to tumors [5]: activates in vivo adenoviral gene transfer to PC-3 human prostate cell tumors in mice

C/C(=N/N=C(/N)NO)c1ccccn1 [Compound 7036]
Activity (gene transfer activator) [1]: ++

C/C(=N/NC(=N)NCc1ccccn1)c1ccccn1 [Compound 7064]
Activity (gene transfer activator) [1]: +

[H]/N=c1/ncn([C@@H]2O[C@H](CO)[C@@H](O)[C@H]2O)c2[nH]cnc12 [Compound 8496]
Activity (gene transfer activator) [1]: +++ | adenoviral gene transfer of LacZ to HT29 cells ([2]; FIG. 6): activates adenoviral gene transfer of LacZ to HT29 cells | activation of adenovirus gene transfer ([2]; 10 micromolar compound): show activation of adenovirus gene transfer | activation of adenovirus gene transfer ([2]; 100 micromolar compound): show activation of adenovirus gene transfer
